From BindingDB's records for doi:10.1021/cb100387r (Riken Advanced Science Institute, 2011)

Molecular target: Protein disulfide-isomerase (Homo sapiens, UniProt P07237)
Assay: Reductase Activity Assay
Conditions: pH 7
Procedure: Reductase activity was assayed by measuring the PDI-catalyzed reduction of insulin in the presence of DTT, thus measuring the aggregation of reduced insulin chains at 650nm.

Sequence of Protein disulfide-isomerase (P07237 whole entry): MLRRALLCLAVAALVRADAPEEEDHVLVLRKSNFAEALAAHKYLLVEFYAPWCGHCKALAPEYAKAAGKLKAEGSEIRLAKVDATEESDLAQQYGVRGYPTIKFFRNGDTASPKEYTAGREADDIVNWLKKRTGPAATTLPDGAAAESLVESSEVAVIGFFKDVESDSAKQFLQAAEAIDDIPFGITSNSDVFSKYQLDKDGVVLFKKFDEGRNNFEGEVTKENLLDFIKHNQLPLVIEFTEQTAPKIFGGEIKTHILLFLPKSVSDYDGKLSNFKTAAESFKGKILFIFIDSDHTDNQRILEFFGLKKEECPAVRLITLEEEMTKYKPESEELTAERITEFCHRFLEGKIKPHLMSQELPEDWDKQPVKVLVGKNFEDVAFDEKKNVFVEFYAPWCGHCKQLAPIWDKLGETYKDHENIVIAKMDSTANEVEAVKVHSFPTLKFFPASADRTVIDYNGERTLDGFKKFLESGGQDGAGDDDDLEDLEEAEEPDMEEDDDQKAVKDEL

IC50 [nM] | SMILES
156 | C/C1=C\CC(OC(=O)c2ccc(O)cc2)/C(C)=C/[C@@H](O)C(C)(C)CCC1 (stereo partly specified) [Juniferdin derivative, 1]
693 | CC(=O)Oc1ccc(C(=O)OC2C/C=C(\C)CCCC(C)(C)[C@H](OC(C)=O)/C=C/2C)cc1 (stereo partly specified) [Juniferdin derivative, 5]
958 | C/C1=C\CC(OC(=O)c2ccc(F)cc2)/C(C)=C/[C@@H](O)C(C)(C)CCC1 (stereo partly specified) [Juniferdin derivative, 7]
167 | C/C1=C\[C@@H](O)C(C)(C)CCC[C@@]2(C)O[C@@H]2CC1OC(=O)c1ccc(O)cc1 (stereo partly specified) [Juniferdin derivative, 13]
> 10000 | CC1(C)CCC[C@@]2(C)O[C@@H]2CC(OC(=O)c2ccc(O)cc2)[C@@]2(C)O[C@@H]2[C@H]1O (stereo partly specified) [Juniferdin derivative, 15]
1850 | C/C1=C\[C@@H](O)C(C)(C)CCC[C@](C)(O)[C@@H](O)CC1OC(=O)c1ccc(O)cc1 (stereo partly specified) [Juniferdin derivative, 17]
> 10000 | C/C1=C\CC(O)/C(C)=C/[C@@H](O)C(C)(C)CCC1 (stereo partly specified) [Juniferol, 12]

The next lines start with the compound.

SMILES | IC50 [nM]
COc1ccc(C(=O)OC2C/C=C(\C)CCCC(C)(C)[C@H](O)/C=C/2C)cc1 (stereo partly specified) [Juniferdin derivative, 2] | > 10000
CC(=O)O[C@@H]1/C=C(\C)C(OC(=O)c2ccc(O)cc2)C/C=C(\C)CCCC1(C)C (stereo partly specified) [Juniferdin derivative, 3] | 453
CC(=O)Oc1ccc(C(=O)OC2C/C=C(\C)CCCC(C)(C)[C@H](O)/C=C/2C)cc1 (stereo partly specified) [Juniferdin derivative, 4] | 627
C/C1=C\CC(OC(=O)c2ccccc2)/C(C)=C/[C@@H](O)C(C)(C)CCC1 (stereo partly specified) [Juniferdin derivative, 6] | 4960
CCCCCCCCOC(=O)c1ccc(O)cc1 [Juniferdin derivative, 8] | > 10000
O=C(OC1CCCCCCC1)c1ccc(O)cc1 [Juniferdin derivative, 9] | 2850
O=C(OC1CCCCCCCCCCC1)c1ccc(O)cc1 [Juniferdin derivative, 10] | 565
C/C1=C\CC(OC(=O)c2ccc(O)cc2)[C@@]2(C)O[C@@H]2[C@@H](O)C(C)(C)CCC1 (stereo partly specified) [Juniferdin derivative, 14] | 2530
C/C1=C\[C@@H](O)C(C)(C)CCC[C@@](C)(O)[C@H](O)CC1OC(=O)c1ccc(O)cc1 (stereo partly specified) [Juniferdin derivative, 16] | > 10000
